The assay deals with gastric tone (fundus of the stomach). Briefly: Gastric tone measured by an electronic barostat in conscious dogs. The assay is classed as in vivo, dog. The following applies: mean maximal change in intragastric volume on relaxation of the fundus, 1 hour after S.C. administration, 0.63 mg/kg, conscious female beagle dogs, barostat at 2 mmHg. The protocol:
Gastric tone cannot be measured by manometric methods. Therefore an electronic barostat was used. This allows the study of the physiological pattern and regulation of gastric tone in conscious dogs and the influence of test-compounds on this tone.
The barostat consists of an air injection system which is connected by a double-lumen 14-French polyvinyl tube to an ultrathin flaccid polyethylene bag (maximal volume: ±700 ml). Variations in gastric tone were measured by recording changes in the volume of air within an intragastric bag, maintained at a constant pressure. The barostat maintains a constant pressure (preselected) within a flaccid air-filled bag introduced into the stomach, changing the volume of air within the bag by an electronic feedback system.
Thus, the barostat measures gastric motor activity (contraction or relaxation) as changes in intragastric volume (decrease or increase resp.) at a constant intragastric pressure. The barostat consists of a strain gauge linked by an electronic relay to an air injection-aspiration system Both the strain gauge and the injection system are connected by means of double-lumen polyvinyl tube to an ultrathin polyethylene bag. A dial in the barostat allows selection of the pressure level to be maintained within the intragastric bag.
Female beagle dogs, weighing 7-17 kg, were trained to stand quietly in Pavlov frames. They were implanted with a gastric cannula under general anaesthesia and aseptic precautions. After a median laparotomy, an incision was made through the gastric wall in longitudinal direction between the greater and the lesser curve, 2 cm above the nerves of Latarjet. The cannula was secured to the gastric wall by means of a double purse string suture and brought out via a stub wound at the left quadrant of the hypochondrium Dogs were allowed a recovery period of two weeks.
At the beginning of the experiment, the cannula was opened in order to remove any gastric juice or food remnants. If necessary, the stomach was cleansed with 40 to 50 ml lukewarm water. […]

`c1ccc(CN2CCCC(c3nc4ncccc4[nH]3)CC2)cc1` (racemic) [Compound 69, (±)-2-[hexahydro-1-(phenylmethyl)-1H-azepin-4-yl]-1H-imidazo[4,5-b]pyridine]: the “Maximum change in volume (mean)” value came to 87 mL.
The same measure for `c1ccc(CN2CCCC(c3nc4ncccc4[nH]3)CC2)cc1` (single isomer, unassigned; (+)) [Compound 81, (+)-2-[hexahydro-1-(phenylmethyl)-1H-azepin-4-yl]-1H-imidazo[4,5-b]pyridine]: 183 mL.
The same measure for `c1ccc(CN2CCCC(c3nc4ncccc4[nH]3)CC2)cc1` (single isomer, unassigned; (-)) [Compound 80, (−)-2-[hexahydro-1-(phenylmethyl)-1H-azepin-4-yl]-1H-imidazo[4,5-b]pyridine]: 55 mL.

These data come from patent US7304052B2, “Substituted homopiperidinyl benzimidazole analogues as fundic relaxants” (Janssen Pharmaceuitca N.V., priority 1999, dated 2007).
